In patent US20260042754A1, “Substituted Bicyclic Heteroaryl Sulfonamide Derivatives for the Treatment of Cancer” (NODUS ONCOLOGY LIMITED, priority 2022, published 2026):

What was measured:
[1] = target: Recombinant His-tagged human PARG protein (Homo sapiens (Human), UniProt Q86W56); test: PARG enzymatic assay (TFMU-ADPr fluorescence); type: biochemical; conditions: 1 nM enzyme, 200 μM TFMU-ADPr, read after 30 minutes
Procedure, shortened: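 Sf21-expressed His-tagged human PARG (1 nM) preincubated 15 min with compound (8-point series, 0.5% DMSO) in pH 7.4 phosphate/KCl/β-mercaptoethanol buffer, then 200 μM TFMU-ADPr added. Fluorescence (ex 380/em 535 nm) read after 30 min; IC50 from 4-parameter logistic fit, no-enzyme control as bottom.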

RMUG-S = test: Modified cell proliferation assay (CellTiter-Glo), RMUG-S, Examples 12-44; type: cell-based; conditions: Examples 12-44: modified protocol, 384-well, 300 cells per well, 120 h; highest concentration tested 9000 nM; read-out: RMUG-S GI50 (high PARG dependency)
Protocol: The cell proliferation assay protocol was modified and used for RMUG-S for Examples 12-44, and subsequently used to test Examples 1-44 in the NCI-H1650 cell line.
NCI-H1650 (ATCC, #CRL-5883) or RMUG-S were seeded on day 1 at 300 cells per well in a 384-well plate (Greiner, #781080) that assure assay linearity and optimal signal intensity in 25 μL of RPMI1640 media (Pan Biotech, #P04-22100) containing 10% FCS (Capricorn, #FBS-11A; Lot. CP22-5141) and 1% Glutamine (Pan Biotech, #P04-80100). After incubation for 24 h in humidified chambers at 37° C./5% CO2, compounds/DMSO were dispensed at different concentrations using an Echo 520 (Beckman Coulter). Cells were further incubated for 120 h at 37° C. and 5% CO2. Cells treated with the compound vehicle DMSO were used as negative controls and cells treated with 10 μM Staurosporine (LC Laboratories, #S-9300) served as positive controls.
At day 6 the CellTiter Glo Reagent was prepared according to the instructions of the kit (Promega Inc.): Reagent was mixed 1:1 with cell culture medium. Thereon, mixture and assay plates were equilibrated at room temperature for 20 min. Equal volumes of the reagent-medium-mixture were added to the volume of culture medium present in each well. The plates were mixed at […] for 2 minutes on an orbital shaker (Timix5, Edmund Buehler GmbH). The microplates were then incubated at room temperature for 10 minutes for stabilization of the luminescent signal. Following incubation, the luminescence was recorded on a Victor X5 microplate reader (Perkin Elmer) using a 200 ms integration time. The data was then analyzed with Excel using the XLFIT Plugin (dose response Fit 205) for determination of the concentration necessary for half-maximal inhibition (i.e. the inflection point of the fitted curve).
As quality control the Z′-factor was calculated from 16 positive and negative control values. Only assay results showing a Z′-factor≥0.5 were used for further analysis.

[2] = target: human PARG (PARG-NanoLuc fusion in HEK293T cells) (Homo sapiens (Human), UniProt Q86W56); test: PARG NanoBRET-based cellular target engagement assay; type: cell-based; conditions: HEK293T cells transfected with PARG-NanoLuc, NanoBRET probe 0.89 μM, 2 hours; read-out: PARG TE IC50
Chain of human PARG (PARG-NanoLuc fusion in HEK293T cells) (Q86W56 whole entry, the tested form may be a part): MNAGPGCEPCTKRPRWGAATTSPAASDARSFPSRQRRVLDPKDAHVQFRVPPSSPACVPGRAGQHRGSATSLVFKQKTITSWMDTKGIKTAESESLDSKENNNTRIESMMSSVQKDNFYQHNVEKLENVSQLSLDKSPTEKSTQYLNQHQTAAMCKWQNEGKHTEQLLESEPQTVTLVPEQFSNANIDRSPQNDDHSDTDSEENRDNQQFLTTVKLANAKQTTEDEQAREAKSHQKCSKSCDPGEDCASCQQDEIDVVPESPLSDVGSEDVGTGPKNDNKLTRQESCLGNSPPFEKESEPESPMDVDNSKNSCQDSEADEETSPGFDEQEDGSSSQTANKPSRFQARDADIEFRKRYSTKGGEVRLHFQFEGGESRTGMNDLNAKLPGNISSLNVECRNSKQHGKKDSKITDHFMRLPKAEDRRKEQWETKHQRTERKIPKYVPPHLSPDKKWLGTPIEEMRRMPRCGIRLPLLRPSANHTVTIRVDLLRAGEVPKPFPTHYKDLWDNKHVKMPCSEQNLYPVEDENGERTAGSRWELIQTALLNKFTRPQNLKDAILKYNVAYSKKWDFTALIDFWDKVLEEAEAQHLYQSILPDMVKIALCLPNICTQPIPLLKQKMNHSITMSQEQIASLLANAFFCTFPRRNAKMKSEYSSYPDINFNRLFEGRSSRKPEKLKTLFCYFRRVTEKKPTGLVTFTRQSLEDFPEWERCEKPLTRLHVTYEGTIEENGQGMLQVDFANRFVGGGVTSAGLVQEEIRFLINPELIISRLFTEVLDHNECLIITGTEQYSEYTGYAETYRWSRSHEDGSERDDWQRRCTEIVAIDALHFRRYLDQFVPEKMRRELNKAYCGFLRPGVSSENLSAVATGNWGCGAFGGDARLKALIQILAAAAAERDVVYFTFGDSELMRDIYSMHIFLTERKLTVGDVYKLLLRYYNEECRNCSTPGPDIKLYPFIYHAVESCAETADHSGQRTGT
Procedure, shortened: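 HEK293T cells transiently expressing full-length human PARG with C-terminal NanoLuc, plated 24 h, then given compound (8-point series, 0.5% DMSO) for 15 min at room temperature. NanoBRET tracer added at 0.89 μM final, 2 h at 37° C.; BRET ratio (460/645 nm) fitted by 4-parameter logistic to give IC50.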

NCI-H1650 = test: Modified cell proliferation assay (CellTiter-Glo), NCI-H1650; type: cell-based; conditions: modified protocol, 384-well, 300 cells per well, 120 h; highest concentration tested 30000 nM; read-out: NCI-H1650 GI50 (high PARG dependency)
Procedure, shortened: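 NCI-H1650 or RMUG-S cells seeded at 300 cells/well in RPMI1640 with 10% FCS, compounds added after 24 h, then 120 h at 37 °C/5% CO2. Viability read by CellTiter-Glo luminescence; IC50 from fitted dose-response inflection point. Z′≥0.5 required.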

Chain of Recombinant His-tagged human PARG protein (Q86W56 whole entry): as the sequence (Q86W56 whole entry, the tested form may be a part) above

Row | SMILES | IC50 [1] [nM] | GI50 (RMUG-S) [nM] | IC50 [2] [nM] | GI50 (NCI-H1650) [nM]
1 | CO/N=c1\[nH]c2c(C3=C[C@@H](C)N(C)CC3)cc(S(=O)(=O)NC3(C)CC3)cc2c(=O)n1Cc1cnn(C)c1 [Example 28, (2E)-2-methoxyimino-N-(1-methylcyclopropyl)-3-[(1-methylpyrazol-4-yl)methyl]-4-oxo-8-[(2R)-1,2-dimethyl-3,6-dihydro-2H-pyridin-4-yl]-1H-quinazoline-6-sulfonamide/(2E)-2-methoxyimino-N-(1-methylcyclopropyl)-3-[(1-methylpyrazol-4-yl)methyl]-4-oxo-8-[(6R)-1,6-dimethyl-3,6-dihydro-2H-pyridin-4-yl]-1H-quinazoline-6-sulfonamide] | < 30 | 500 to 2000 | < 30 | < 500
2 | CO/N=c1\[nH]c2c(C3=C[C@@H](C)N(C(C)=O)CC3)cc(S(=O)(=O)NC3(C)CC3)cc2c(=O)n1Cc1cnn(C)c1 [Example 29, (2E)-2-methoxyimino-N-(1-methylcyclopropyl)-3-[(1-methylpyrazol-4-yl)methyl]-4-oxo-8-[(2R)-1-acetyl-2-methyl-3,6-dihydro-2H-pyridin-4-yl]-1H-quinazoline-6-sulfonamide/(2E)-2-methoxyimino-N-(1-methylcyclopropyl)-3-[(1-methylpyrazol-4-yl)methyl]-4-oxo-8-[(6R)-1-acetyl-6-methyl-3,6-dihydro-2H-pyridin-4-yl]-1H-quinazoline-6-sulfonamide] | < 30 | 500 to 2000 | < 30 | 500 to 2000
3 | CO/N=c1\[nH]c2c(C3=C[C@@H](C)N(C(=O)C4(C)CC4)CC3)cc(S(=O)(=O)NC3(C)CC3)cc2c(=O)n1Cc1cnn(C)c1 [Example 30, (2E)-2-methoxyimino-N-(1-methylcyclopropyl)-3-[(1-methylpyrazol-4-yl)methyl]-4-oxo-8-[(2R)-2-methyl-1-(1-methylcyclopropanecarbonyl)-3,6-dihydro-2H-pyridin-4-yl]-1H-quinazoline-6-sulfonamide/(2E)-2-methoxyimino-N-(1-methylcyclopropyl)-3-[(1-methylpyrazol-4-yl)methyl]-4-oxo-8-[(6R)-6-methyl-1-(1-methylcyclopropanecarbonyl)-3,6-dihydro-2H-pyridin-4-yl]-1H-quinazoline-6-sulfonamide] | < 30 | < 500 | < 30 | < 500
